Laboratory results taken from US7179823B1, “5-membered n-heterocyclic compounds with hypoglycemic and hypolipidemic activity” (Takeda Pharmaceutical Company Limited, priority 1999, dated 2007).

Test system: KKA^y mice
Test: Total cholesterol lowering action and plasma anti-arteriosclerosis index-enhancing action in mice
Format: in vivo
Conditions: Mus musculus, po, 96 h, four days, non-treatment group taken as 100%; for change in vivo at 0.01 % / inhibition in vivo at 0.01 %: 0.01% in powdery diet; for change in vivo at 0.005 % / inhibition in vivo at 0.005 %: 0.005% in powdery diet
Text: Total Cholesterol Lowering Action and Plasma Anti-Arteriosclerosis Index-Enhancing Action in Mice
Test compounds were mixed in a powdery diet (CE-2, Japan Clea) at the concentration of 0.01% (compounds of Examples 12, 30, 89), 0.005% (compounds of Examples 38, 40, 44, 181, 184, 262, 283), or 0.001% (compounds of Examples 9, 156, 167, 172, 174, 176, 189), and freely given to KKA^y mice (9 to 12 weeks old, 5 mice per group), a model of obese and type 2 diabetes mellitus, for four days. During this period, water was given freely. Blood was sampled from orbital venous plexus and plasma was separated. Total cholesterol levels were determined by using L type Wako Cholesterol (Wako Pure Chemical Industries, Ltd.). Precipitation reagent for apoB containing lipoprotein was added to a part of the plasma to precipitate non-HDL lipoprotein, and cholesterol (HDL cholesterol) in the resulting supernatant was determined. The plasma anti-arteriosclerosis index [(HDL cholesterol/total cholesterol)×100] was calculated by using these cholesterol levels.
In the Table, “Total cholesterol lowering action (%)” represents the percent reduction (%) of total cholesterol level in the treatment group, when the total cholesterol level in the non-treatment group is taken as 100%. “Plasma anti-arteriosclerosis index-enhancing action (%)” represents the percent increase (%) of plasma anti-arteriosclerosis index in the treatment group, when the plasma anti-arteriosclerosis index in the non-treatment group is taken as 100%.

[1] = percent increase of [(HDL cholesterol/total cholesterol)×100], read-out: Plasma anti-arteriosclerosis index-enchancing action (%)
[2] = percent reduction of plasma total cholesterol

## Cc1oc(-c2cccs2)nc1COc1ccc(Cn2cc(CCC(=O)O)c(-c3ccccc3)c2)cc1 [Example 9, 3-[1-[4-[5-methyl-2-(2-thienyl)-4-oxazolylmethoxy]benzyl]-4-phenyl-3-pyrrolyl]propionic acid]
0.001% in powdery diet, percent increase of [(HDL cholesterol/total cholesterol)×100], read-out: Plasma anti-arteriosclerosis index-enchancing action (%)
  change in vivo at 0.001 %: 12%
0.001% in powdery diet, percent reduction of plasma total cholesterol
  inhibition in vivo at 0.001 %: 16%

## O=C(O)CCc1cn(Cc2ccc(OCc3cccnc3)cc2)cc1-c1ccccc1 [Example 12, 3-[4-phenyl-1-[4-(3-pyridylmethoxy)benzyl]-3-pyrrolyl]propionic acid]
[1]
  change in vivo at 0.01 %: 24%
[2]
  inhibition in vivo at 0.01 %: 15%

## O=C(O)CCc1cn(Cc2ccc(OCc3csc(-c4ccccc4)n3)cc2)cc1-c1ccccc1 [Example 30, 3-[4-phenyl-1-[4-(2-phenyl-4-thiazolylmethoxy)benzyl]-3-pyrrolyl]propionic acid]
[1]
  change in vivo at 0.01 %: 16%
[2]
  inhibition in vivo at 0.01 %: 27%

## O=C(O)CCc1cn(Cc2ccc(OCc3csc(-c4ccco4)n3)cc2)cc1-c1ccccc1 [Example 38, 3-[1-[4-[2-(2-furyl)-4-thiazolylmethoxy]benzyl]-4-phenyl-3-pyrrolyl]propionic acid]
[1]
  change in vivo at 0.005 %: 21%
[2]
  inhibition in vivo at 0.005 %: 24%

## O=C(O)CCc1cn(Cc2ccc(OCc3csc(-c4cccs4)n3)cc2)cc1-c1ccccc1 [Example 40, 3-[4-phenyl-1-[4-[2-(2-thienyl)-4-thiazolylmethoxy]benzyl]-3-pyrrolyl]propionic acid]
[1]
  change in vivo at 0.005 %: 22%
[2]
  inhibition in vivo at 0.005 %: 19%

## O=C(O)CCc1cn(Cc2ccc(OCc3coc(-c4ccccc4)n3)cc2)cc1-c1ccccc1 [Example 44, 3-[4-phenyl-1-[4-(2-phenyl-4-oxazolylmethoxy]benzyl]-3-pyrrolyl]propionic acid]
[1]
  change in vivo at 0.005 %: 21%
[2]
  inhibition in vivo at 0.005 %: 23%

## Cc1oc(-c2ccccc2)nc1COc1ccc(Cn2cc(CCC(=O)O)c(-c3ccccc3)n2)cc1 [Example 89, 3-[1-[4-(5-methyl-2-phenyl-4-oxazolylmethoxy)benzyl]-3-phenyl-1H-pyrazol-4-yl]propionic acid]
[1]
  change in vivo at 0.01 %: 15%
[2]
  inhibition in vivo at 0.01 %: 8%

## CCOc1nn(Cc2ccc(OCc3nc(-c4ccccc4)oc3C)nc2)cc1CC(=O)O [Example 262, 3-ethoxy-1-[6-(5-methyl-2-phenyl-4-oxazolylmethoxy)-3-pyridylmethyl]-1H-pyrazol-4-ylacetic acid]
[1]
  change in vivo at 0.005 %: 9%
[2]
  inhibition in vivo at 0.005 %: 22%

## Cc1oc(-c2ccccc2)nc1COc1ccc(Cn2cc(CCC(=O)O)c(-c3ccccc3)n2)cn1 [Example 283, 3-[1-[2-(5-methyl-2-phenyl-4-oxazolylmethoxy)-5-pyridylmethyl]-3-phenyl-1H-pyrazol-4-yl]propionic acid]
[1]
  change in vivo at 0.005 %: 19%
[2]
  inhibition in vivo at 0.005 %: 24%
